Test results from the NIST ThermoML archive (doi:10.1016/j.jct.2019.02.031).

Experiment: xn = mol fraction of the nth substance listed
Details: 101 kPa, Liquid; for viscosity: Falling or rolling sphere viscometry; for mass density: Vibrating tube method

Cn1cc[n+](CCC[N+](C)(C)C)c1.N#C[N-]C#N.N#C[N-]C#N + CC(C)O
Details	mass density [kg/m3]	viscosity [mPa·s]
283.15 K, x1 = 0.1001	905.3	12.27
283.15 K, x1 = 0.2	978.56	31.98
283.15 K, x1 = 0.2999	1028.83	71.59
283.15 K, x1 = 0.4	1065.91	152.1
283.15 K, x1 = 0.5001	1094.18	290.4
283.15 K, x1 = 0.5998	1114.84	452
283.15 K, x1 = 0.7002	1130.38	742.9
283.15 K, x1 = 0.8001	1142.95	1216
283.15 K, x1 = 0.8985	1153.75	2301
283.15 K, x1 = 1	1162.82	4998
288.15 K, x1 = 0.1001	901.8	10.23
288.15 K, x1 = 0.2	975.32	25.55
288.15 K, x1 = 0.2999	1025.72	54.85
288.15 K, x1 = 0.4	1062.7	110.5
288.15 K, x1 = 0.5001	1091.1	204.6
288.15 K, x1 = 0.5998	1111.98	303.9
288.15 K, x1 = 0.7002	1127.66	493.5
288.15 K, x1 = 0.8001	1140.22	749.8
288.15 K, x1 = 0.8985	1150.85	1346
288.15 K, x1 = 1	1159.76	2736
293.15 K, x1 = 0.1001	898.28	8.914
293.15 K, x1 = 0.2	972.09	21.4
293.15 K, x1 = 0.2999	1022.6	44.54
293.15 K, x1 = 0.4	1059.76	85.03
293.15 K, x1 = 0.5001	1088.04	153
293.15 K, x1 = 0.5998	1108.93	219.1
293.15 K, x1 = 0.7002	1124.71	341.4
293.15 K, x1 = 0.8001	1137.27	498.6
293.15 K, x1 = 0.8985	1147.89	843.4
293.15 K, x1 = 1	1156.74	1608
298.15 K, x1 = 0.1001	894.74	7.619
298.15 K, x1 = 0.2	968.65	18.02
298.15 K, x1 = 0.2999	1019.48	35.75
298.15 K, x1 = 0.4	1056.42	66.38
298.15 K, x1 = 0.5001	1084.68	116.5
298.15 K, x1 = 0.5998	1105.58	163
298.15 K, x1 = 0.7002	1121.85	245.1
298.15 K, x1 = 0.8001	1134.38	342.8
298.15 K, x1 = 0.8985	1144.95	558.1
298.15 K, x1 = 1	1153.73	1007
303.15 K, x1 = 0.1001	891.18	6.585
303.15 K, x1 = 0.2	965.32	15.28
303.15 K, x1 = 0.2999	1016.38	29.22
303.15 K, x1 = 0.4	1053.15	53.45
303.15 K, x1 = 0.5001	1081.45	90.62
303.15 K, x1 = 0.5998	1102.88	124.3
303.15 K, x1 = 0.7002	1118.91	181.3
303.15 K, x1 = 0.8001	1131.5	245.7
303.15 K, x1 = 0.8985	1141.97	387.2
303.15 K, x1 = 1	1150.76	662.9
308.15 K, x1 = 0.1001	–	5.755
308.15 K, x1 = 0.2	–	13.11
308.15 K, x1 = 0.2999	–	24.31
308.15 K, x1 = 0.4	–	43.61
308.15 K, x1 = 0.5001	–	71.82
308.15 K, x1 = 0.5998	–	97.07
308.15 K, x1 = 0.7002	–	137.7
308.15 K, x1 = 0.8001	–	182
308.15 K, x1 = 0.8985	–	278.9
308.15 K, x1 = 1	–	455.4
